20 compounds from patent US20250270222A1, “AP2 ASSOCIATED KINASE 1 INHIBITORS AND USES THEREOF” (Satellos Bioscience Inc., priority 2023, published 2025) can be followed below.

The target of experiment [1] is AAK1 (amino acids T27-A365) (Homo sapiens (Human), UniProt Q2M2I8). Description: AAK1 pSENs assay. It is filed as biochemical. The settings on record: ratio of AAK1 pSENs activity to GAK pSENs activity. The method, then:
(§1) The recombinant proteins were independently expressed in Esherichia coli BL21(DE3) cells cultured in Luria-Bertani (LB) medium until OD600 reached 0.6-0.8, then cooled to 15° C., and supplemented with 0.5 mM isopropyl 1-thio-D-galactopyranoside (IPTG) induce protein expression 16 h. Cells were harvested and resuspended in lysis buffer (50 mM HEPES pH 7.5, 500 mM NaCl, 5 mM imidazole, 5% glycerol, 0.5 mM Tris (2-carboxyethyl) phosphine (TCEP), cOmplete Protease Inhibitor Tablet (Roche)) and lysed by microfluidics high pressure homogenizer (UH-06, Union-Biotech). Proteins were purified using Ni-Affinity chromatography (His FF column, Bestchrom) and eluted stepwise in binding buffer with 20-300 mM imidazole. Removal of the hexahistidine tag was performed at 4° C. overnight using recombinant TEV protease and reacted with BirA to obtain the corresponding biotinylated-AAK1. BIKE or GAK proteins. Further separated in the reverse Strep column (Strep-Tactin® XT, IBA). The Biotin elution sample was collected containing untagged biotinylated protein was then purified by Ion-exchange chromatography (Mono Q 10/100 GL, Cytiva) and Size-exclusion chromatography (HiLoad 16/600 Superdex 200 pg, Cytiva). The pure protein was stored in a storage buffer 50 mM HEPES (pH 7.5), 300 mM NaCl, 5% glycerol at −80° C. Protein were characterized by SDS-PAGE. LC-MS and aSEC.
This example describes one illustrative method for determining the IC50 of the compounds of the present invention against AAK1 (amino acids T27-A365). AAK1 protein was dissolved at 20 nM in 1× enzyme solution (50 mM HEPES pH7.5, 10 mM MgCl2, 1 mM DTT, 1% glycerol, 0.5 mM EGTA, 0.01% Briji35, 0.02% BSA) and 12.5 ul was incubated with 250 nl DMSO or 250 nl compound in DMSO at 25° C. for 15 min. The reaction was started by addition of 12.5 ul of 30 uM AQT0759 (Assayquant, CSKS-AQT0759B) and 70 uM ATP which were diluted in 1× substrate dilution buffer (50 mM HEPES pH7.5, 10 mM MgCl2, 1 mM DTT, 1% glycerol, 0.5 mM EGTA, 0.01% Briji35).

In experiment [2] the target is GAK (amino acids Q25-N335) (Homo sapiens (Human), UniProt O14976). Kind of experiment: GAK pSENs assay. It is filed as biochemical. As to the method: as §1
GAK (amino acids Q25-N335), sequence (O14976 25-335): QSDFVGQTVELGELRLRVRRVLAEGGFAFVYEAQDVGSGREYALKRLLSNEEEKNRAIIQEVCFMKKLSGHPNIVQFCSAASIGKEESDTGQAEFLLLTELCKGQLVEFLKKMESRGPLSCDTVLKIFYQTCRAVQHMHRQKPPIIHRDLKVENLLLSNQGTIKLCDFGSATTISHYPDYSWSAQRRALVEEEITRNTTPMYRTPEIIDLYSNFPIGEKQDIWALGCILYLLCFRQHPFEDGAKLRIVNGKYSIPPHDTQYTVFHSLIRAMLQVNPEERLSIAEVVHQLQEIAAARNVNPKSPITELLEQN
This example describes one illustrative method for determining the IC50 of the compounds of the present invention against GAK (amino acids Q25-N335).

pIC50: −log10 of the molar value.

AAK1 (amino acids T27-A365), sequence (Q2M2I8 27-365): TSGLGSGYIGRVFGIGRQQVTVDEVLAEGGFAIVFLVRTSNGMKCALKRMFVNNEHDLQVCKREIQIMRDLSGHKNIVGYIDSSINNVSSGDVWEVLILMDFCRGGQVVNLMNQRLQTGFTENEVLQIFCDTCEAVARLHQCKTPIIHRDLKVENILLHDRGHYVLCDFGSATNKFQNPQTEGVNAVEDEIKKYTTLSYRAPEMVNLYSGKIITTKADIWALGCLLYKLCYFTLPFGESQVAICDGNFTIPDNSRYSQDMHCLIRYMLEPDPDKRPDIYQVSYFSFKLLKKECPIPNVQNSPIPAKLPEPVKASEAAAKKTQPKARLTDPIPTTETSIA

Consider `O=C(O[C@H]1CO[C@H]2OCC[C@H]21)N1CCN(c2ccn3ncc(-c4cccnc4OC4CC4)c3n2)CC1` [Compound I-27, [(3aS,4R,6aR)-2,3,3a, 4,5,6a-hexahydrofuro[2,3-b]furan-4-yl]-4-[3-[2-(cyclopropoxy)-3-pyridyl]pyrazolo[1,5-a]pyrimidin-5-yl]piperazine-1-carboxylate], for which the “AAK1:GAK pSENs Selectivity” value in experiment [1] was “A (A: ≤0.015)”. For the same compound, the pIC50 (usually the negative decadic logarithm of the IC50, by convention in mol/L) in experiment [2] was under 5.82.

Consider `CC(C)(C)OC(=O)N1CCC(N2C[C@@H](OC(=O)N3CCN(c4ccn5ncc(-c6cccnc6OC6CC6)c5n4)CC3)CC2=O)CC1` [Compound I-30, [(3S)-1-(1-tert-Butoxycarbonyl-4-piperidyl)-5-oxo-pyrrolidin-3-yl]4-[3-[2-(cyclopropoxy)-3-pyridyl]pyrazolo[1,5-a]pyrimidin-5-yl]piperazine-1-carboxylate], for which, in experiment [1], the “AAK1:GAK pSENs Selectivity” value is reported as “A (A: ≤0.015)”. Moreover, the negative logarithm of the IC50 (pIC50) in experiment [2] was under 5.82.

Regarding `O=C(O[C@H]1CC(=O)N(C2CCNCC2)C1)N1CCN(c2ccn3ncc(-c4cccnc4OC4CC4)c3n2)CC1` [Compound I-32, [(3S)-5-Oxo-1-(4-piperidyl)pyrrolidin-3-yl]4-[3-[2-(cyclopropoxy)-3-pyridyl]pyrazolo[1,5-a]pyrimidin-5-yl]piperazine-1-carboxylate], the “AAK1:GAK pSENs Selectivity” value in experiment [1] is on record as “A (A: ≤0.015)”. Moreover, in experiment [2], the negative logarithm of the IC50 (pIC50) is under 5.82.

As to `CN1C[C@@H](OC(=O)N2CCN(c3ccn4ncc(-c5cccnc5OC5CC5)c4n3)CC2)CC1=O` [Compound I-34], in experiment [1], the “AAK1:GAK pSENs Selectivity” value was “A (A: ≤0.015)”. In experiment [2], this compound showed a pIC50 of under 5.82.

With `CNCCN1C[C@@H](OC(=O)N2CCN(c3ccn4ncc(-c5cccnc5OC5CC5)c4n3)CC2)CC1=O` [Compound I-36, (S)-1-(2-(methylamino)ethyl)-5-(oxopyrrolidin-3-yl)-4-(3-(2-cyclopropoxypyridin-3-yl)pyrazolo[1,5-a]pyrimidin-5-yl)piperazine-1-carboxylate], in experiment [1], the “AAK1:GAK pSENs Selectivity” value was “A (A: ≤0.015)”. For the same compound, the pIC50 in experiment [2] is under 5.82.

With `O=C1C[C@H](OC(=O)N2CCN(c3ccn4ncc(-c5cccnc5OC5CC5)c4n3)CC2)CN1CCO` [Compound I-38, [(3S)-1-(2-Hydroxyethyl)-5-oxo-pyrrolidin-3-yl]-4-[3-[2-(cyclopropoxy)-3-pyridyl]pyrazolo[1,5-a]pyrimidin-5-yl]piperazine-1-carboxylate], the “AAK1:GAK pSENs Selectivity” value in experiment [1] is recorded as “A (A: ≤0.015)”. The compound also had a pIC50 in experiment [2] of under 5.82.

As to `C[C@@H]1CN(c2ccn3ncc(-c4cccnc4OC4CC4)c3n2)CCN1C(=O)O[C@@H]1CNC(=O)C1` [Compound I-39, [(3S)-5-oxopyrrolidin-3-yl]-(2R)-4-[3-[2-(cyclopropoxy)-3-pyridyl]pyrazolo[1,5-a]pyrimidin-5-yl]-2-methyl-piperazine-1-carboxylate], the “AAK1:GAK pSENs Selectivity” value in experiment [1] is listed as “A (A: ≤0.015)”. In experiment [2], this compound had a pIC50 of under 5.82.

For `CC(C)(C)OC(=O)N1CC(Oc2ncccc2-c2cnn3ccc(N4CCN(C(=O)O[C@@H]5CNC(=O)C5)CC4)nc23)C1` [Compound I-42, [(3S)-5-Oxopyrrolidin-3-yl]4-[3-[2-(1-tert-butoxycarbonylazetidin-3-yl)oxy-3-pyridyl]pyrazolo[1,5-a]pyrimidin-5-yl]piperazine-1-carboxylate], the “AAK1:GAK pSENs Selectivity” value in experiment [1] is given as “A (A: ≤0.015)”. In experiment [2], this compound gave a pIC50 of under 5.82.

Turning to `CN1CC[C@@](C)(OC(=O)N2CCN(c3ccn4ncc(-c5cccnc5OC5CC5)c4n3)CC2)C1` [Compound I-50, [(3R)-1,3-dimethylpyrrolidin-3-yl]-4-[3-[2-(cyclopropoxy)-3-pyridyl]pyrazolo[1,5-a]pyrimidin-5-yl]piperazine-1-carboxylate], the “AAK1:GAK pSENs Selectivity” value in experiment [1] is “A (A: ≤0.015)”. The pIC50 in experiment [2] was under 5.82.

Take `C[C@@]1(OC(=O)N2CCN(c3ccn4ncc(-c5cccnc5OC5CC5)c4n3)CC2)CCN(CCO)C1` [Compound I-52, [(3R)-1-(2-hydroxyethyl)-3-methyl-pyrrolidin-3-yl]-4-[3-[2-(cyclopropoxy)-3-pyridyl]pyrazolo[1,5-a]pyrimidin-5-yl]piperazine-1-carboxylate]: the “AAK1:GAK pSENs Selectivity” value in experiment [1] is given as “A (A: ≤0.015)”. Further, the pIC50 in experiment [2] is under 5.82.

Regarding `COC(=O)N1CC(Oc2ncccc2-c2cnn3ccc(N4CCN(C(=O)O[C@@H]5CNC(=O)C5)CC4)nc23)C1` [Compound I-58, [(3S)-5-oxopyrrolidin-3-yl]-4-[3-[2-(1-methoxycarbonylazetidin-3-yl)oxy-3-pyridyl]pyrazolo[1,5-a]pyrimidin-5-yl]piperazine-1-carboxylate], the “AAK1:GAK pSENs Selectivity” value in experiment [1] is given as “A (A: ≤0.015)”. The same compound gave a pIC50 in experiment [2] of under 5.82.

As for `CC(=O)N1CC(Oc2ncccc2-c2cnn3ccc(N4CCN(C(=O)O[C@@H]5CNC(=O)C5)CC4)nc23)C1` [Compound I-59, (S)-5-oxopyrrolidin-3-yl 4-(3-(2-((1-acetylazetidin-3-yl)oxy)pyridin-3-yl)pyrazolo[1,5-a]pyrimidin-5-yl)piperazine-1-carboxylate], the “AAK1:GAK pSENs Selectivity” value in experiment [1] was “A (A: ≤0.015)”. Moreover, in experiment [2], the pIC50 is under 5.82.

For the compound `CN(CCNc1ccn2ncc(-c3cccnc3OC3CC3)c2n1)C(=O)O[C@@H]1CNC(=O)C1` [Compound I-60], in experiment [1], the “AAK1:GAK pSENs Selectivity” value was “C (C: 0.076-0.15)”. Moreover, the pIC50 in experiment [2] is under 5.82.

Regarding `CN(CCNc1ccn2ncc(-c3cccnc3OC3CN(C(=O)OC(C)(C)C)C3)c2n1)C(=O)OC(C)(C)C` [Compound I-62, Tert-butyl 3-[[3-[5-[2-[tert-butoxycarbonyl(methyl)amino]ethylamino]pyrazolo[1,5-a]pyrimidin-3-yl]-2-pyridyl]oxy]azetidine-1-carboxylate], the “AAK1:GAK pSENs Selectivity” value in experiment [1] is recorded as “A (A: ≤0.015)”. The pIC50 in experiment [2] is under 5.82.

As for `CC(=O)N1CC(Oc2ncccc2-c2cnn3ccc(NCCN(C)C(=O)OC(C)(C)C)nc23)C1` [Compound I-63, Tert-butyl (2-((3-(2-((1-acetylazetidin-3-yl)oxy)pyridin-3-yl)pyrazolo[1,5-a]pyrimidin-5-yl)amino)ethyl)(methyl)carbamate], the “AAK1:GAK pSENs Selectivity” value in experiment [1] is given as “A (A: ≤0.015)”. Besides, the negative-log IC50 (pIC50) in experiment [2] is under 5.82.

Consider `COC(=O)N1CC(Oc2ncccc2-c2cnn3ccc(NCCN(C)C(=O)OC(C)(C)C)nc23)C1` [Compound I-64], for which, in experiment [1], the “AAK1:GAK pSENs Selectivity” value is recorded as “A (A: ≤0.015)”. In experiment [2], this compound had a negative-log IC50 (pIC50) of under 5.82.

Consider `COc1ncccc1-c1cnn2ccc(N3CCN(C(=O)O[C@H]4CO[C@H]5OCC[C@H]54)CC3)nc12` [Compound I-65, (3R,3aS,6aR)-hexahydrofuro[2,3-b]furan-3-yl 4-(3-(2-methoxypyridin-3-yl)pyrazolo[1,5-a]pyrimidin-5-yl)piperazine-1-carboxylate], for which the “AAK1:GAK pSENs Selectivity” value in experiment [1] is “A (A: ≤0.015)”. This compound gave a pIC50 in experiment [2] of under 5.82.

Take `COc1ccccc1-c1cnn2ccc(N3CCN(C(=O)O[C@H]4CO[C@H]5OCC[C@H]54)CC3)nc12` [Compound I-69, (3R,3aS,6aR)-hexahydrofuro[2,3-b]furan-3-yl 4-(3-(2-methoxyphenyl)pyrazolo[1,5-a]pyrimidin-5-yl)piperazine-1-carboxylate]: the “AAK1:GAK pSENs Selectivity” value in experiment [1] is on record as “A (A: ≤0.015)”. Moreover, the pIC50 in experiment [2] is under 5.82.

As to `[2H]C1([2H])N(C(=O)O[C@@H]2CNC(=O)C2)C([2H])([2H])C([2H])([2H])N(c2ccn3ncc(-c4cccnc4OC4CC4)c3n2)C1([2H])[2H]` [Compound I-72, [(3S)-5-oxopyrrolidin-3-yl]4-[3-[2-(cyclopropoxy)-3-pyridyl]pyrazolo[1,5-a]pyrimidin-5-yl]-2,2,3,3,5,5,6,6-octadeuterio-piperazine-1-carboxylate], in experiment [1], the “AAK1:GAK pSENs Selectivity” value is “A (A: ≤0.015)”. Further, the pIC50 in experiment [2] is under 5.82.

For `COC(=O)N1CC(Oc2ncccc2-c2cnn3ccc(N4CCN(C(=O)O[C@@H]5CC(=O)N(C)C5)CC4)nc23)C1` [Compound I-83, [(3R)-1-methyl-5-oxo-pyrrolidin-3-yl]4-[3-[2-(1-methoxycarbonylazetidin-3-yl)oxy-3-pyridyl]pyrazolo[1,5-a]pyrimidin-5-yl]piperazine-1-carboxylate], in experiment [1], the “AAK1:GAK pSENs Selectivity” value is given as “A (A: ≤0.015)”. Further, in experiment [2], the pIC50 was under 5.82.
